Laboratory results taken from US20240209022A1, “NOVEL PEPTIDE HAVING ANTI-INFLAMMATORY AND TISSUE REGENERATIVE ACTIONS” (KOREA RESEARCH INSTITUTE OF BIOSCIENCE AND BIOTECHNOLOGY, priority 2020, published 2024).

B1: Amuc_1409: SEQ ID NO: 15, functional fragment obtained by eliminating the leader sequence from SEQ ID NO: 14; protein derived from Akkermansia muciniphila (protein)
chain: IPESSVPAAAVSSIKGAYPNAGPIEWDSEMHGMERIYEAEFRINGFQFDVKIAPDGKIVRIKEEIAASSLPEAVRASVLKRYPGCRIKEAEKITEGELVRYKVEVADSRDDYDVLIAPDGNILHVDR
modifications: Amuc_1409_fragment
notes: protein derived from Akkermansia muciniphila

Key:
[1] = system: animal model of muscle atrophy/muscle strength loss due to natural aging (geriatric sarcopenia); test: Geriatric sarcopenia model (natural aging): muscle strength and muscle mass; format: in vivo, C57BL/6 mice; conditions: vs PBS buffer group; for grip strength: 11th week of administration, oral 0.2 μg/150 μL; for GC (gastrocnemius) muscle weight / TA (tibialis anterior) muscle weight / soleus muscle weight: after the experiment; for muscle strength (grip strength): oral
Protocol: The efficacy of the peptides was verified using an animal model of muscle atrophy/muscle strength loss due to natural aging (geriatric sarcopenia). At the time of administration of Amuc_1409, 80 to 83-week old C57BL/6 male mice were used. Amuc_1409 was dissolved in PBS buffer at a concentration of 2.4 μM and then orally administered to the mice by 150 μL per animal at the same time once a day for 32 weeks. To the control group, PBS buffer was orally administered in the same manner. At the 16th week of Amuc_1409 administration, aged mice were allowed to hold the wire net connected to the muscle strength probe of the grip strength meter with all four paws, and then the tail was carefully pulled backward to measure the maximum grip strength at the moment at which the mice held onto the wire net. For muscle weight, after administration, the gastrocnemius (GC), soleus, and tibialis anterior (TA) muscles from both hind paws of the aged mice of each group were carefully separated to avoid damage, and each weight was measured. Muscle weight versus body weight was calculated by correcting with the body weight of the mouse. After the end of the experiment, in order to analyze the size of muscle fibers in each group, TA muscles were fixed in 10% formalin, and frozen section samples (8 μm) were prepared to prepare slides. The prepared slides were washed with PBS buffer solution, permeabilized with 0.5% Triton X-100, blocked, and treated with primary antibody (anti-laminin). After 24 hours, a fluorescent secondary antibody (Alexa Fluor 488 Goat anti-rabbit IgG) was applied, and the slides were finally treated with DAPI for nuclear staining. The immunostained slides were subjected to photographing of muscle tissue using a confocal microscope. Using image analysis software (ImageInside), the distribution of cross-sectional area of muscle fibers was calculated for each size from a minimum of 500 μm^2 or less to 3500 μm^2 or more. Meanwhile, in order to examine the efficacy of Amuc_1409 as well as its fragments, 82- to 83-week-old C57BL/6 male mice were used. PEP001 was dissolved in PBS buffer at a concentration of 2.4 μM and then orally administered to the mice by 150 μL per animal at the same time once a day for 10 weeks. To the control group, PBS buffer was orally administered in the same manner. At the 10th week of PEP001 administration, the maximum grip strength and muscle weight were calculated in the same manner as the measurement in Amuc_1409. At the end of the experiment, a part of the GC muscle excised was homogenized with Trizol to extract RNA. Reverse transcriptase was added to the obtained RNA and reacted to synthesize cDNA, and SYBR Green and primers were added to perform quantitative real-time PCR (RT-qPCR). The gene expression level of insulin-like growth factor (IGF-1) involved in protein synthesis in muscle cells was then quantified. In addition, in order to confirm the efficacy of the novel tetrapeptides and tripeptides PEP006 to PEP013, the improvement efficacy on geriatric sarcopenia was examined using naturally aged 76 to 78-week old female C57BL/6J mice. For an additional 12 weeks, the novel tetrapeptides PEP006, PEP007, PEP008, PEP009, and PEP010 or novel tripeptides PEP011, PEP012, and PEP013 were each dissolved in PBS buffer at a concentration of 0.2 μg/150 μL and then orally administered to the naturally aged mice by 150 μL per mouse at the same time until the end of the test. To the control group, PBS buffer was orally administered in the same manner. For all animals, general symptoms were observed immediately before administration at the start of administration, and grip strength was measured at the 11th week of administration in order to analyze muscle strength attenuation. […]

[2] = system: C57BL/6 mice with telogen hair; test: Hair growth promotion on shaved dorsal skin; format: in vivo; conditions: vs vehicle
Protocol: In order to examine the hair growth promoting efficacy, 8-week-old C57BL/6 mice with telogen hair having pink dorsal skin were used. The mice were anesthetized, then the hair on the back of the mouse was removed using an electric hair clipper for animals. Amuc_1409 was dissolved in vehicle (50% ethanol, 20% propylene glycol, 30% water) at a concentration of 3.2 μM and then applied to the skin of the hair-removed site by 200 μL per animal using a pipette once a day for 21 days, and PEP006 to PEP013 were each dissolved in vehicle (50% ethanol, 20% propylene glycol, 30% water) at a concentration of 30 μM and then applied to the skin of the hair-removed site by 200 μL per animal using a pipette once a day for 28 days. For the control group, the same volume of vehicle (50% ethanol, 20% propylene glycol, 30% water) was applied to the skin.
Skin color and hair density were visually observed, scored according to the scoring criteria in Table 5, and graphed (Table 5).
After the experiment, the test animals were sacrificed, then the skin tissue of the mouse was fixed in 10% NBF at room temperature for 24 hours or more, and then embedded in paraffin to prepare a 5 μm-thick section, and the section was stained with (H&E) hematoxylin and eosin. The histological changes of the hair follicle tissue in the H&E-stained tissue sections were observed under an optical microscope. The number and depth of hair follicles and the thicknesses of dermis and subcutis were measured under an optical microscope, and the hair growth cycle was evaluated. The number of hair follicles was calculated by counting the number of hair follicles present in the subcutaneous tissue under a 100-magnification optical microscope. Changes in the depth of hair follicles and the thicknesses of dermis and subcutis were measured using the Image J program using a scale bar.

[3] = day 28 after application, 30 μM topical

Molecule | grip strength [1] | GC (gastrocnemius) muscle weight [1] | TA (tibialis anterior) muscle weight [1] | soleus muscle weight [1] | proportion of the area where hair grew out to the total area (hair growth score) [2, 3] | also measured
AGS [PEP012] | significantly increased | tended to increase | tended to increase | tended to increase | tended to increase | 
VGAY (PEP010) | significantly increased | tended to increase | tended to increase | tended to increase |  | 
IGAY (PEP008) | significantly increased | tended to increase | tended to increase | tended to increase | tended to increase | 
SGAY (PEP009) | significantly increased | tended to increase | tended to increase | tended to increase | tended to increase | 
AQS [PEP011] | significantly increased | tended to increase | tended to increase | tended to increase | tended to increase | 
AIS [PEP013] | significantly increased | tended to increase | tended to increase | tended to increase | tended to increase | 
AGAY (PEP006) | significantly increased | tended to increase | tended to increase | tended to increase | tended to increase | 
AVSSIKGAY (PEP001) |  | significantly increased | increased | significantly increased |  | muscle strength (grip strength) ([1]; 10th week of administration): significantly increased; IGF-1 gene expression in GC muscle ([1]; 10th week of administration): tended to increase
RGAY (PEP007) | increased to a significant level | tended to increase | tended to increase | increased to a significant level | tended to increase | 
B1 |  | increased | increased | significantly increased |  | muscle strength (grip strength) ([1]; 16th week of administration): significantly increased; muscle fibers with a size of 2,000 μm^2 or more in the TA muscle ([1]; laminin immunostaining): significantly increased; number of muscle fibers with a cross-sectional size of 500 μm^2 or less in the TA muscle ([1]; laminin immunostaining): decreased; average size of all muscle fibers [1]: significantly increased; depth of the hair follicle ([2]; H&E): significantly increased; number of hair follicles present in the subcutaneous fat layer ([2]; H&E): significantly increased; proportion of hair in the anagen phase ([2]; H&E): significantly increased; thickness of dermis ([2]; H&E): significantly increased; thickness of subcutis ([2]; H&E): significantly increased; proportion of the area where hair grew out to the total area (hair growth score) ([2]; day 21 after application, 3.2 μM topical): significantly increased
